How the values were obtained:
[1] = H2S generation in buffer and liver homogenate (Example 15); assay type: in vitro ADME, rat; settings: for H2S generation in buffer: buffer pH 7.4, 37° C.
Experimental: (Compound XXVII) was tested for H2S generation under three different conditions. Concentrations of H2S that were generated within 1 hour from 1 mM concentrations of L-cysteine, 4-HBT (4-hydroxythiobenzamide) and 5-amino-2-(4-thiocarbamoyl-phenoxycarbonyloxy)-benzoic acid were measured. H2S release was tested under three conditions: (i) when the compound was in buffer, (ii) when the compound was in a liver homogenate, and (iii) when the compound was in the liver homogenate together with an inhibitor of cystathionine γ-lyase (PAG=DL-propargylglycine; 2 mM). Results are shown in FIG. 6. *p<0.05 compared to the release from the vehicle group. ^ψp>0.05 versus the corresponding ‘homogenate’ group. The enzymatic capacity for H2S production was determined using the same reactor as described previously (Khan et al. (1980) Microchem J 25: 388-395, incorporated herein by reference). Two ml of an assay reaction mixture was introduced in the reactor. The mixture contained 1 mM L-cysteine (or compound), 2 mM pyridoxal 5′-phosphate, 100 mM potassium phosphate buffer (pH=7.4). A constant stream of nitrogen was passed through the mixture via gas-inlet capillary. Reactions were initiated by transferring the tubes from ice bath to a 37° C. water bath. The stream of nitrogen carried the sulfide acid in the second reactor containing 4 ml of sulfide anti-oxidant buffer (SAOB) solution, consisting of 2M KOH, 1M salicylic acid and 0.22M ascorbic acid at pH 12.8[5]. After incubating at 37° C. for 90 minutes, 1 ml of 10% trichloroacetic acid solution was added to mixture to stop the reaction. The remainder H2S in the mixture was carried out via nitrogen stream by other 60 minutes of incubation at 37° C. The concentration of sulfide in SAOB solution was measured with a sulfide sensitive electrode (Model 9616 S^2−/Ag^+ electrode, Orion Research, Beverly, Mass., USA). For studies in which the test compounds were incubated in liver homogenate, 100-150 mg of isolated rat livers were homogenized in 1 ml of ice-cold T-PER protein extractor. The homogenates were added to the reaction mixture at a concentration of 10% (wt/vol). DL-propargylglycine 2 mM was incubated with liver homogenates for 5 min at 37° C. prior the enzyme reaction. Khan, S. U. Morris, G. F. and Hidiroglou, M. (1980) Rapid estimation of sulfide in rumen and blood with a sulfide-specific ion electrode. Microchem J. 25:388-395, incorporated herein by reference.

TNBS-induced colitis = TNBS-induced colitis in mice (disease activity score, MPO activity); assay type: in vivo; settings: oral 100 mg/kg every 12 h for 5 days
Experimental: A standard experimental animal model of colitis induced by intracolonic administration of 2,4,6-trinitrobenzene sulfonic acid (TNBS) to mice is used in the following example. A detailed description of this model has been published (Santucci et al. (2003) Gastroenterology 124:1381-94) and is incorporated herein by reference. Briefly, 6-8 week old Balb/c mice were given TNBS intracolonically at a dose of 1.5 mg in 0.1 mL of 30% ethanol. The mice were randomized to the various treatment groups (n=6 per group). Beginning one hour later and continuing every 12 h for 5 days, the mice were treated orally with vehicle (1% carboxymethylcellulose (CMC)), 5-ASA (mesalamine) alone (100 mg/kg), 4-hydroxythiobenzamide (referred to in the Figures as 4-HTB) (100 mg/kg), 5-amino-2-(4-thiocarbamoyl-phenoxycarbonyloxy)-benzoic acid (100 mg/kg) (referred to hereinafter as Compound XXVII) and equimolar doses of mesalamine (50 mg/kg) and (4-HTB) (50 mg/kg). *p<0.05 versus the vehicle-treated group. Each group consisted of at least 5 rats.
The mice were evaluated (blindly) on the final day of the study for the presence of diarrhea and fecal occult blood, and their body weights were measured. […] After sacrifice, a sample of the colon was excised for measurement of myeloperoxidase (MPO) activity, as a marker of granulocyte infiltration. All results were compared to those obtained with healthy mice as well.

visceral pain perception = assay: Rat model of visceral pain perception (colorectal distension, AWR score); assay type: in vivo; settings: 0.8 mL colorectal distention; for pain perception score: 100 mg/kg i.p., FIG. 3, FIG. 4
Experimental: A rat model of visceral pain perception, a pre-clinical model of irritable bowel syndrome, was used in the following example. Rats (male, Wistar, 200-250 g, obtained from Charles River, Monza, Italy), were housed in plastic cages and maintained under controlled conditions with 12-hours light/dark cycle with lights on at 7.00 AM. Tap water and standard laboratory chow were freely available. Before experiments, rats were individually trained by spending 2-3 hours per day in a plexiglass cage for 2-3 days. It allowed them to adjust to a movement-restriction environment. Food was withheld for 12 hours before colorectal distension (CRD) recording were performed. Experiments were performed in awake rats and were conducted in a blind manner in that the observer was not aware of the identity of drug administered to each animal.
In the testing day, rats were sedated with ether inhalation and a 2 cm long latex balloon was inserted intrarectally 2 cm from the anal verge and fixed at the base of the tail. The balloon was connected via a double-barreled cannula to a pressure transducer to continuously monitoring the rectal pressure by a computer (PowerLab PC, A.D. Instruments, Milford, Mass., USA) and to a syringe for inflation/deflation of the balloon. The rats were then housed in a small cage (20×8×8 cm) on an elevated Plexiglas™ platform and allowed to wake up and adapt for 1 hour. After recovery from sedation, animals underwent the CRD procedure and behavioral responses were tested. The night before the experiments, the balloons were inflated and left overnight so the latex stretched and the balloons became compliant.
CRD of 20 seconds, performed every 5 minutes, was applied in increment of 0.4 ml starting from 0.4 ml up to 1.6 ml water. To achieve an accurate measurement of the colonic parameters and perception, the distensions were repeated twice for each intensity and data for each animal were averaged for analysis. Each animal underwent a double set of CRD. Twenty minutes after the first sequence of CRD (0.4 mL-1.6 ml water), drugs were administered intraperitoneally (i.p.) and a second set of CRD was performed. Behavioral responses during the first and the second set of CRD were assessed and compared.
Behavioral response to CRD was assessed by measuring the abdominal withdrawal reflex (AWR) using a semiquantitative score (1).
A rat model of visceral pain perception as described above was used to compare pain perception scores for 5-amino-2-(4-thiocarbamoyl-phenoxycarbonyloxy)-benzoic acid (Compound XXVII) with or without glibenclamide, an inhibitor of ATP-sensitive K^+ (KATP) channels.
Experiments were carried out as described in Example 13, except that groups of 5 rats each were treated with vehicle, trimebutine maleate (10 mg/kg), or with equimolar doses of trimebutine thiocarbamoylbenzoate (Compound III) or thiocarbamolybenzoate alone.

COX-1 and/or COX-2 = assay: Gastric prostaglandin E2 synthesis; assay type: in vivo, rat; settings: oral, 3 h; diclofenac 20 mg/kg or equimolar doses; FIG. 9
Experimental: Briefly, the tissue samples were minced with scissors for 30 min, then placed in 1 mL of sodium phosphate buffer (pH 7.4) and placed in a shaking water bath (37° C.) for 20 min.

Row | Compound | H2S generation in liver homogenate ([1]; 1 mM compound, 10% rat liver homogenate, FIG. 6) | H2S generation in buffer ([1]; 1 mM compound, FIG. 6) | H2S generation in liver homogenate with PAG ([1]; 1 mM compound, liver homogenate plus DL-propargylglycine 2 mM, FIG. 6) | concentration of H2S produced ([1]; 1 mM of the compound) [µM] | Disease Activity Score (TNBS-induced colitis; FIG. 1) | myeloperoxidase (MPO) activity (granulocyte infiltration) (TNBS-induced colitis; colon sample, FIG. 2) | pain perception score (visceral pain perception) | pain perception score after glibenclamide pretreatment (visceral pain perception; glibenclamide 10 mg/kg i.p. 30 min before, FIG. 3) | gastric PGE2 synthesis (COX-1 and/or COX-2)
1 | 5-amino-2-(4-thiocarbamoyl-phenoxycarbonyloxy)-benzoic acid [Compound XXVII] | greater when in the presence of tissue | releases H2S spontaneously | lack of effect | 10 to 20 | almost three times as effective | significantly reduced inflammation | significantly reduced the pain perception | reversed by pretreatment with glibenclamide | 
2 | NC(=S)c1ccc(O)cc1 [4-hydroxythiobenzamide] |  | did not release significant H2S |  |  |  |  | did not have a significant effect on pain perception |  | did not reduce gastric PGE2 synthesis

Reference: US8314140B2, “4-hydroxythiobenzamide derivatives of drugs” (Antibe Therapeutics Inc., priority 2006, dated 2012)
